From paper PMC3871601, “Potential Cooperations between Odorant-Binding Proteins of the Scarab Beetle Holotrichia oblita Faldermann (Coleoptera: Scarabaeidae)” (PLoS ONE, 2013)
Read-outs that look alike come from different tables or passages of the source.

Key:
[1] = target: HoblOBP3 (Holotrichia oblita, UniProt G9BWQ7); experiment: biochemical; format: binding
Protocol: (§1) N-phenyl-1-naphthylamine (1-NPN) was selected as a probe to measure the affinity of the 1-NPN fluorescent ligand to proteins. A 1-cm light path quartz cuvette was used, and the fluorescence spectra were recorded on a Lengguang 970 CRT spectrofluorimeter (Shanghai Jingmi, China) at room temperature in a right angle configuration. The parameter selection was such that the slit widths for both excitation and emission were 10 nm. 1-NPN was excited at 337 nm and the emission spectra were recorded between 350 and 550 nm. Spectra were recorded using high-speed scanning.
(§2) The 2 µM protein solution was dissolved in 50 mM Tris-HCl buffer with pH 7.4, and the ligands were dissolved in chromatographically pure methanol as a 1 mM stock solution. 1-NPN was dissolved in chromatographically pure methanol as a 1 mM stock solution.
(§3) To determine the dissociation constants, the intensity values corresponding to the maximum fluorescence emission were plotted against free ligand concentrations. Assuming that the protein was 100% active and that the stoichiometric ratio between the protein and ligand was 1:1 at saturation, the bound ligand was determined from the fluorescence intensity values. The curves were then linearized using Scatchard plots. The K1-NPN values were estimated using GraphPad Prism 5 Software by nonlinear regression for a unique binding site. The dissociation constants of the competitors (Ki) were calculated from the corresponding IC50 values using the following equation: Ki = [IC50]/1+[1-NPN]/K1-NPN. […] [1-NPN] represented the free concentration of 1-NPN, and K1-NPN represented the dissociation constant of the complex protein/1-NPN [76].

[2] = target: HoblOBP4 (Holotrichia oblita, UniProt G9BWQ8); experiment: biochemical; format: binding
HoblOBP4, sequence (G9BWQ8 entry or part of it): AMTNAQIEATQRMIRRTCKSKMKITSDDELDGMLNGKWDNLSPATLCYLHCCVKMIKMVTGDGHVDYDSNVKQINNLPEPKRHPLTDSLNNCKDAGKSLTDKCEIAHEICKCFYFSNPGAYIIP
Protocol: as §1, §2, §3

[3] = HoblOBP3, dash = IC50 exceeded 50 µM, read-out: IC50 (dash)
[4] = HoblOBP3, dash = ligand whose IC50 exceeded 50 µM, Ki not given, read-out: Ki (dash)
[5] = pH 7.4, HoblOBP3, at the ligand concentration 24 µM, protein and 1-NPN both 2 µM, read-out: Int (fluorescence intensity as percent of the initial fluorescence)
[6] = HoblOBP4, protein and 1-NPN both 2 µM, ligand titrated 2–50 µM, read-out: IC50 (concentration of ligand halving the initial fluorescence intensity)
[7] = pH 7.4, HoblOBP4, at the ligand concentration 24 µM, protein and 1-NPN both 2 µM, read-out: Int (fluorescence intensity as percent of the initial fluorescence)
[8] = HoblOBP4, calculated from IC50 and K1-NPN, read-out: Ki
[9] = HoblOBP3, at the ligand concentration 24 µM, protein and 1-NPN both 2 µM
[10] = HoblOBP4, at the ligand concentration 24 µM, protein and 1-NPN both 2 µM
[11] = HoblOBP4, dash = IC50 exceeded 50 µM, read-out: IC50 (dash)
[12] = HoblOBP4, dash = ligand whose IC50 exceeded 50 µM, Ki not given, read-out: Ki (dash)
[13] = pH 7.4, read-out: Int (fluorescence intensity as percent of the initial fluorescence)

HoblOBP3, sequence (G9BWQ7 entry or part of it): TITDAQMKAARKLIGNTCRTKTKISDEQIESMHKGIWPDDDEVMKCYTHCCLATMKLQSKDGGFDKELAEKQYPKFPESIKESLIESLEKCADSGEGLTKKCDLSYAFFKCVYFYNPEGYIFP

IC50 [1, 3]	Ki [1, 4]	activity at 24 µM [1, 5]	IC50 [2, 6]	activity at 24 µM [2, 7]	Ki [2, 8]	Compound	IC50 [1]	Ki [1]	IC50 [2]	Ki [2]	other results
> 50 µM	> 50 µM	76%	24 µM	50%	–	CCOC(=O)CN [Glycine ethyl ester]	–	–	–	–	–
> 50 µM	> 50 µM	69%	11 µM	40%	8.1 µM	CCCCOC(=O)c1ccccc1 [Butyl Benzoate]	–	–	–	–	–
> 50 µM	> 50 µM	–	–	–	–	CC(C)[C@@H]1CC[C@@H](C)C[C@H]1OC(=O)c1ccccc1O [Menthyl salicylate]	–	–	–	–	Int (fluorescence intensity as percent of the initial fluorescence) [1, 9]: 75%; Int (fluorescence intensity as percent of the initial fluorescence) [2, 10]: 54%; IC50 [2, 11]: > 50 µM; Ki [2, 12]: > 50 µM
> 50 µM	> 50 µM	78%	40 µM	56%	29.4 µM	CC/C=C\CCOC(C)=O [(Z)-3-Hexenyl acetate]	–	–	–	–	–
–	–	–	–	–	–	CC1=CCC(O)(C(C)C)CC1 (stereo not drawn) [Terpinen-4-ol]	> 50 µM	> 50 µM	21 µM	15.4 µM	activity at 24 µM [1, 13]: 75%; activity at 24 µM [2, 13]: 48%
> 50 µM	> 50 µM	91%	12 µM	45%	8.8 µM	CCCCCCO [1-Hexanol]	–	–	–	–	–
–	–	–	–	–	–	CC(=O)/C=C/C1C(C)=CCCC1(C)C (stereo not drawn) [α-Ionone]	16 µM	10.4 µM	19 µM	14 µM	activity at 24 µM [1, 13]: 41%; activity at 24 µM [2, 13]: 45%
–	–	–	–	–	–	C=C1CC/C=C(\C)CC[C@@H]2[C@@H]1CC2(C)C [β-Caryophyllene]	> 50 µM	> 50 µM	> 50 µM	> 50 µM	–
> 50 µM	> 50 µM	–	20 µM	–	14.7 µM	CCOC(=O)[C@@H]1CCCN1 [L-Proline ethyl ester]	–	–	–	–	Int (fluorescence intensity as percent of the initial fluorescence) [1, 9]: 70%; Int (fluorescence intensity as percent of the initial fluorescence) [2, 10]: 47%
> 50 µM	> 50 µM	68%	24 µM	49%	17.7 µM	CC[C@H](C)[C@H](N)C(=O)OC [L-Isoleucine methyl ester]	–	–	–	–	–
> 50 µM	> 50 µM	81%	20 µM	48%	14.7 µM	CCCOC(=O)c1ccccc1 [Propyl benzoate]	–	–	–	–	–
> 50 µM	> 50 µM	86%	40 µM	54%	29.4 µM	C=CC(O)CCCCC (stereo not drawn) [1-Octen-3-ol]	–	–	–	–	–
> 50 µM	> 50 µM	86%	–	68%	–	CCCCCCCCCC=O [1-Decanal]	–	–	–	–	IC50 [2, 11]: > 50 µM; Ki [2, 12]: > 50 µM
> 50 µM	> 50 µM	68%	19 µM	49%	14 µM	CC(C)(C)C1CCC(O)CC1 (stereo not drawn) [4-tert-Butyl cyclohexanol]	–	–	–	–	–
> 50 µM	> 50 µM	–	–	–	–	CCCCCCCCCC [Decane]	–	–	–	–	IC50 [2, 11]: > 50 µM; Ki [2, 12]: > 50 µM
–	–	65%	16 µM	44%	11.8 µM	CCCCC=O [1-Pentanal]	–	–	–	–	Ki ([1]; HoblOBP3, calculated from IC50 and K1-NPN, read-out: Ki): 26.8 µM; IC50 ([1]; HoblOBP3, protein and 1-NPN both 2 µM, ligand titrated 2–50 µM, read-out: IC50 (concentration of ligand halving the initial fluorescence intensity)): 41 µM
> 50 µM	> 50 µM	–	–	–	–	CCCCCCCCC [Nonane]	–	–	–	–	IC50 [2, 11]: > 50 µM; Ki [2, 12]: > 50 µM
> 50 µM	> 50 µM	71%	16 µM	46%	11.8 µM	CCCCCCCCCO [1-Nonanol]	–	–	–	–	–
> 50 µM	> 50 µM	70%	23 µM	49%	16.9 µM	O=C1C=CCCC1 [2-Cyclohexen-1-one]	–	–	–	–	–
> 50 µM	> 50 µM	66%	28 µM	52%	20.6 µM	OCCc1ccccc1 [Phenethyl alcohol]	–	–	–	–	–
> 50 µM	> 50 µM	53%	4 µM	36%	2.9 µM	CCCCCCOC(=O)c1ccccc1 [Hexyl benzoate]	–	–	–	–	–
–	–	–	–	–	–	CC(=O)CCC=C(C)C [6-Methyl-5-hepten-2-one]	> 50 µM	> 50 µM	32 µM	23.5 µM	activity at 24 µM [1, 13]: 78%; activity at 24 µM [2, 13]: 52%
> 50 µM	> 50 µM	70%	21 µM	46%	15.4 µM	CCCCCCCO [1-Heptanol]	–	–	–	–	–
–	–	–	–	–	–	CC/C=C\CCO [cis-3-Hexen-1-ol]	> 50 µM	> 50 µM	17 µM	12.5 µM	activity at 24 µM [1, 13]: 81%; activity at 24 µM [2, 13]: 46%
> 50 µM	> 50 µM	74%	–	56%	–	C=CC(=C)CCC=C(C)C [Myrcene]	–	–	–	–	IC50 [2, 11]: > 50 µM; Ki [2, 12]: > 50 µM
–	–	–	–	–	–	O=Cc1ccccc1 [Benzaldehyde]	> 50 µM	> 50 µM	17 µM	12.5 µM	activity at 24 µM [1, 13]: 68%; activity at 24 µM [2, 13]: 44%
–	–	–	–	–	–	CC(C)=CCC/C(C)=C/CO [Geraniol]	> 50 µM	> 50 µM	16 µM	11.8 µM	activity at 24 µM [1, 13]: 79%; activity at 24 µM [2, 13]: 44%
–	–	–	–	–	–	CCC/C=C/C=O [trans-2-Hexenal]	> 50 µM	> 50 µM	11 µM	8.1 µM	activity at 24 µM [1, 13]: 74%; activity at 24 µM [2, 13]: 39%

Compound	IC50 [1, 3]	Ki [1, 4]	activity at 24 µM [1, 5]	IC50 [2, 6]	activity at 24 µM [2, 7]	Ki [2, 8]	IC50 [1]	Ki [1]	IC50 [2]	Ki [2]	other results
O=CCc1ccccc1 [Benzeneacetaldehyde]	> 50 µM	> 50 µM	–	–	–	–	–	–	–	–	IC50 [2, 11]: > 50 µM; Ki [2, 12]: > 50 µM
CCCCCCC [Heptane]	–	–	63%	–	43%	–	> 50 µM	> 50 µM	16 µM	11.8 µM	–
CCCCCCCC [Octane]	> 50 µM	> 50 µM	–	25 µM	–	18.4 µM	–	–	–	–	activity at 24 µM [1, 13]: 70%; activity at 24 µM [2, 13]: 51%
C=C(C)C1CC=C(C)CC1 (stereo not drawn) [Limonene]	–	–	56%	–	52%	–	> 50 µM	> 50 µM	> 50 µM	> 50 µM	–
CCCCCC=O [1-Hexanal]	–	–	68%	–	42%	–	> 50 µM	> 50 µM	15 µM	11 µM	–
CCC/C=C\CO [cis-2-Hexen-1-ol]	–	–	70%	–	42%	–	> 50 µM	> 50 µM	14 µM	10.3 µM	–
